Experimental data from ChEMBL document CHEMBL1201862, “PubChem BioAssay data set” (2004).
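Five concentrations, 48 hours, 96-well plates. GI50 is the concentration that inhibits growth by half.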 The source made the active and inactive calls. No stated cut-off is given here; in the data, active = GI50 up to about 1.1 µM and inactive = higher.

Key:
Test in all cases: growth of human tumour cells (NCI), 48 h
COLO 205 = tested on: COLO 205
NCI/ADR-RES = tested on: NCI/ADR-RES
SK-OV-3 = tested on: SK-OV-3
EKVX = tested on: EKVX
HCT-116 = tested on: HCT-116
K562 = tested on: K562
LOX IMVI = tested on: LOX IMVI
Malme-3M = tested on: Malme-3M
SR = tested on: SR
HCT-15 = tested on: HCT-15
MDA-MB-231 = tested on: MDA-MB-231
OVCAR-8 = tested on: OVCAR-8
SK-MEL-28 = tested on: SK-MEL-28
M14 = tested on: M14
UACC-257 = tested on: UACC-257
ACHN = tested on: ACHN
RXF 393 = tested on: RXF 393
IGROV-1 = tested on: IGROV-1
CCRF-CEM = tested on: CCRF-CEM
PC-3 = tested on: PC-3

SMILES	GI50 (COLO 205)	GI50 (NCI/ADR-RES)	GI50 (SK-OV-3)	GI50 (EKVX)	GI50 (HCT-116)	GI50 (K562)	GI50 (LOX IMVI)	GI50 (Malme-3M)	GI50 (SR)	GI50 (HCT-15)	GI50 (MDA-MB-231)	GI50 (OVCAR-8)	GI50 (SK-MEL-28)	GI50 (M14)	GI50 (UACC-257)	GI50 (ACHN)	GI50 (RXF 393)	GI50 (IGROV-1)	GI50 (CCRF-CEM)	GI50 (PC-3)
COC(=O)c1ccccc1CC(Cc1ccccc1)C(=O)OC (centres undefined)	64.6 µM (inactive)	42.5 µM (inactive)	36.3 µM (inactive)	45.9 µM (inactive)	47.9 µM (inactive)	37.7 µM (inactive)	58.9 µM (inactive)	64.4 µM (inactive)	27 µM (inactive)	31.3 µM	> 100 µM (inactive)	87.1 µM (inactive)	> 100 µM (inactive)	68.7 µM (inactive)	72.1 µM (inactive)	> 100 µM (inactive)	33.7 µM (inactive)	> 100 µM (inactive)	87.9 µM (inactive)	47.1 µM (inactive)
CCCCNC(=O)c1cc(S(=O)(=O)n2ccnc2O)c(SC)cc1Cl	> 100 µM (inactive)	> 100 µM (inactive)	> 100 µM (inactive)	> 100 µM (inactive)	> 100 µM (inactive)	> 100 µM (inactive)	> 100 µM (inactive)	> 100 µM (inactive)	> 100 µM (inactive)	> 100 µM	> 100 µM (inactive)	> 100 µM (inactive)	> 100 µM (inactive)	> 100 µM (inactive)	> 100 µM (inactive)	> 100 µM (inactive)	> 100 µM (inactive)	> 100 µM (inactive)	> 100 µM (inactive)	> 100 µM (inactive)
Cc1cc(-c2nc3c(F)cccc3s2)ccc1N	80.5 µM (inactive)	> 100 µM (inactive)	> 100 µM (inactive)	2.42 µM (inactive)	85.1 µM (inactive)	40.3 µM (inactive)	61.4 µM (inactive)	28.8 µM (inactive)	48 µM (inactive)	84.9 µM	> 100 µM (inactive)	> 100 µM (inactive)	> 100 µM (inactive)	97.5 µM (inactive)	82.6 µM (inactive)	30 µM (inactive)	41.7 µM (inactive)	–	3.94 µM (inactive)	97.5 µM (inactive)
c1ccc2c(c1)CC1c3[nH]c4ccccc4c3CCN21 (centres undefined)	> 10 µM (inactive)	> 10 µM (inactive)	> 10 µM (inactive)	> 10 µM (inactive)	> 10 µM (inactive)	> 10 µM (inactive)	> 10 µM (inactive)	> 10 µM (inactive)	> 10 µM (inactive)	> 10 µM	> 10 µM (inactive)	> 10 µM (inactive)	> 10 µM (inactive)	> 10 µM (inactive)	> 10 µM (inactive)	> 10 µM (inactive)	> 10 µM (inactive)	> 10 µM (inactive)	> 10 µM (inactive)	> 10 µM (inactive)
CCOC(=O)N1c2ccccc2N(C(=O)OCC)C1CC(=O)/C=C/c1ccccc1	2.04 µM (inactive)	2.73 µM (inactive)	5.35 µM (inactive)	2.79 µM (inactive)	3.3 µM (inactive)	3.72 µM (inactive)	2.45 µM (inactive)	4.06 µM (inactive)	2.3 µM (inactive)	2.98 µM	4.03 µM (inactive)	2.65 µM (inactive)	7.57 µM (inactive)	4.45 µM (inactive)	6.49 µM (inactive)	4.15 µM (inactive)	3.85 µM (inactive)	3.63 µM (inactive)	1.86 µM (inactive)	3.94 µM (inactive)
COC(=O)CC1(O)C(C=C(C)C)C(C(=O)OC)C(=O)C(C(=O)OC)C1C(=O)OC (centres undefined)	> 100 µM (inactive)	38.5 µM (inactive)	> 100 µM (inactive)	> 100 µM (inactive)	> 100 µM (inactive)	> 100 µM (inactive)	> 100 µM (inactive)	> 100 µM (inactive)	> 100 µM (inactive)	> 100 µM	> 100 µM (inactive)	> 100 µM (inactive)	> 100 µM (inactive)	> 100 µM (inactive)	> 100 µM (inactive)	> 100 µM (inactive)	> 100 µM (inactive)	> 100 µM (inactive)	> 100 µM (inactive)	> 100 µM (inactive)
CC(C)(C)OC(=O)NC(Cc1ccccc1)C(=O)OCN1C(=O)C2C3C=CC(C2C1=O)C1C2C(=O)N(COC(=O)C(Cc4ccccc4)NC(=O)OC(C)(C)C)C(=O)C2C31 (centres undefined)	8.22 µM (inactive)	43 µM (inactive)	37.2 µM (inactive)	23.6 µM (inactive)	19.2 µM (inactive)	23.1 µM (inactive)	36.9 µM (inactive)	39.4 µM (inactive)	0.176 µM (active)	43.2 µM	29.7 µM (inactive)	30.1 µM (inactive)	34.6 µM (inactive)	38.9 µM (inactive)	> 56.4 µM (inactive)	40.6 µM (inactive)	22.7 µM (inactive)	30.4 µM (inactive)	2.67 µM (inactive)	29.5 µM (inactive)
